Experimental data as given in patent US11504320B2, “Use of naturally glycosylated polyphenols as protective agents against the effects of ultraviolet irradiation” (MEDENA AG, priority 2017, dated 2022).
“Also recorded” adds a separate entry of the source. Like-named read-outs stand apart in the source and are kept apart here. Marks after values point to notes of the source that are not given here.

What was measured:
[1] = Photo stability: effect of solar simulating UV irradiation on SPF values of sunscreens; type: physicochemical; settings: for SPF after UV irradiation: fifty μM solution
Experimental: Fifty μM sunscreen solutions placed in 3.5 cm Petri dishes were irradiated by 66% UVA+33% UVB for 1, 3, 20, and 40 min. Final doses of UV irradiation were 0.15, 0.45, 3.0, and 6.0 J/cm^2, respectively. * p<0.05 vs background SPF; ** p<0.01 vs background SPF.

[2] = test system: skin cells; test: Photo-chemo-toxicity (photo-chemo damage to skin cells); type: cell-based
Text: This is true for quercetin and its alpha-glycosylated derivative, resveratrol, chalcone and many others. The phenomenon of photo-chemo-toxicity depends of UV-induced destruction of the parent molecule and cytotoxicity exerted by the formed metabolites.

[3] = Broad band UVB and UVA absorption (SPF and UVA/UVB ratio) of sunscreens; type: physicochemical; settings: for SPF1 (sun protection factor corresponding to UVB absorption): 250 μM sunscreen; for SPF2 (sun protection factor corresponding to UVB absorption): 10% (weight %) sunscreen
Experimental: For the invention as claimed data are presented in support of the surprising finding that definite naturally glycosylated polyphenols provide optimal photo-protection due to several reasons. They effectively absorb broad-band range of UV light in both spectrum regions: UVA and UVB. […] The efficacy of absorption is expressed as SPF (sun protection factor) for UVB range representing an integral of absorption within the whole UVB spectrum. The efficacy of absorption is also calculated as the UVA/UVB ratio showing that the ratio should be greater than 0.5 up to 1.2 in order to provide proper UVA protection.

[4] = solar simulated UVB+UVA irradiation
[5] = UV (66% UVA + 33% UVB) 0 J/cm^2
[6] = UV (66% UVA + 33% UVB) 3.0 J/cm^2 (20 min)
[7] = UV (66% UVA + 33% UVB) 6.0 J/cm^2 (40 min)
[8] = UV (66% UVA + 33% UVB) 0.15 J/cm^2 (1 min)
[9] = UV (66% UVA + 33% UVB) 0.45 J/cm^2 (3 min)

O=c1c(O)c(-c2ccc(O)c(O)c2)oc2cc(O)cc(O)c12 [Quercetin]
Photo-stability on exposure to UV irradiation (in words) [1, 4]: photo-unstable
Photo-stability on exposure to UV irradiation (in words) ([1]; solar simulated UVB+UVA irradiation, listed as quercetin): unstable to exposure to UV irradiation; also recorded: easily destructed
Photo-chemo-toxicity (in words) [2]: photo-chemo-toxicity

Leontopodic acids
UVA/UVB (ratio of UVA to UVB absorption) [3]: 0.51
SPF1 (sun protection factor corresponding to UVB absorption) [3]: 11.83 ± 0.12
SPF2 (sun protection factor corresponding to UVB absorption) [3]: 6.79 ± 0.12

C[C@@H]1O[C@@H](O[C@@H]2[C@@H](O)[C@H](OCCc3ccc(O)c(O)c3)O[C@H](CO)[C@H]2OC(=O)/C=C/c2ccc(O)c(O)c2)[C@H](O)[C@H](O)[C@H]1O [Verbascoside]
UVA/UVB (ratio of UVA to UVB absorption) [3]: 0.59
SPF1 (sun protection factor corresponding to UVB absorption) [3]: 8.25 ± 0.09
SPF2 (sun protection factor corresponding to UVB absorption) [3]: 5.29 ± 0.09
SPF after UV irradiation [1, 5]: 8.25 ± 0.09
SPF after UV irradiation [1, 6]: 8.23 ± 0.12
SPF after UV irradiation [1, 7]: 8.26 ± 0.10

O=C1c2c(O)cc(O)cc2O[C@H](c2ccc(O)c(O)c2)[C@H]1O [Taxifolin]
UVA/UVB (ratio of UVA to UVB absorption) [3]: 0.46
SPF1 (sun protection factor corresponding to UVB absorption) [3]: 6.38 ± 0.12
SPF2 (sun protection factor corresponding to UVB absorption) [3]: 8.39 ± 0.14
SPF after UV irradiation [1, 5]: 6.38 ± 0.12
SPF after UV irradiation [1, 6]: 6.38 ± 0.12
SPF after UV irradiation [1, 7]: 6.39 ± 0.12

O=c1cc(-c2ccccc2)oc2cc(O)c(O)c(O)c12 [Baicalein]
UVA/UVB (ratio of UVA to UVB absorption) [3]: 1.14
SPF1 (sun protection factor corresponding to UVB absorption) [3]: 3.65 ± 0.12
SPF2 (sun protection factor corresponding to UVB absorption) [3]: 5.41 ± 0.12
SPF after UV irradiation [1, 5]: 3.68 ± 0.15
SPF after UV irradiation [1, 8]: 3.63 ± 0.12
SPF after UV irradiation [1, 9]: 3.62 ± 0.13
SPF after UV irradiation [1, 6]: 3.69 ± 0.12
SPF after UV irradiation [1, 7]: 3.79 ± 0.12
Photo-stability on exposure to UV irradiation (in words) [1, 4]: easily destructed

O=c1c(O)c(-c2cc(O)c(O)c(O)c2)oc2cc(O)cc(O)c12 [myricetin]
Photo-stability on exposure to UV irradiation (in words) [1, 4]: easily destructed

COc1cc(/C=C/C(=O)O)ccc1O [trans-Ferulic acid]
SPF after UV irradiation [1, 5]: 7.34 ± 0.18
SPF after UV irradiation [1, 8]: 5.34 ± 0.09**
SPF after UV irradiation [1, 9]: 3.91 ± 0.11
SPF after UV irradiation [1, 6]: 3.61 ± 0.13
SPF after UV irradiation [1, 7]: 3.74 ± 0.17

alpha-glycosyl quercetin [alpha-glycosylated derivative]
Photo-stability on exposure to UV irradiation (in words) [1]: photo-unstable
Photo-chemo-toxicity (in words) [2]: photo-chemo-toxicity

O=C(/C=C/c1ccccc1)c1ccccc1 [Ghalcone]
Photo-chemo-toxicity (in words) ([2]; skin cells, UV): photo-chemo-toxicity

Oc1ccc(C=Cc2cc(O)cc(O)c2)cc1 [Resveratrol]
SPF after UV irradiation [1, 5]: 11.98 ± 0.11
SPF after UV irradiation [1, 8]: 4.81 ± 0.20**
SPF after UV irradiation [1, 9]: 4.25 ± 0.20
SPF after UV irradiation [1, 6]: 4.93 ± 0.16
SPF after UV irradiation [1, 7]: 4.63 ± 0.10
Photo-stability on exposure to UV irradiation (in words) [1, 4]: unstable to exposure to UV irradiation; also recorded: easily destructed
Photo-chemo-toxicity (in words) [2]: photo-chemo-toxicity

O=c1c(O)c(-c2ccc(O)cc2O)oc2cc(O)cc(O)c12 [Morin]
UVA/UVB (ratio of UVA to UVB absorption) [3]: 1.70
SPF1 (sun protection factor corresponding to UVB absorption) [3]: 2.63 ± 0.08
SPF2 (sun protection factor corresponding to UVB absorption) [3]: 3.48 ± 0.12

O=c1c(O)c(-c2ccc(O)cc2)oc2cc(O)cc(O)c12 [kaempferol]
Photo-stability on exposure to UV irradiation (in words) [1, 4]: unstable to exposure to UV irradiation
Photo-stability on exposure to UV irradiation (in words) ([1]; solar simulated UVB+UVA irradiation, listed as kaempherol): easily destructed
